Assay results published in patent EP0391077A1, “O56-alkyl derivatives of aglycone and pseudoaglycones of teicoplanin” (GRUPPO LEPETIT S.p.A., priority 1989, dated 1990).
Structures can show the parent of a compound that is named as a salt.

Test: physchem
Type: physicochemical
Conditions: methylcellosolve:water 4:1, pKMCS
Description: The potentiometric determinations reported in the examples are run in Methylcellosolve : water, 4:1 (v/v). An excess of 0.01 N HCl In this solvent mixture was added to the sample and the resulting solution was titrated with 0.01 N NaOH in the same solvent mixture. The pK value obtained under the conditions is reported below as pKMCS, wherein MCS stands for Methylcellosolve.

Row | Structure (SMILES) | pKa
1 | COC(=O)C1NC(=O)C2NC(=O)C(NC(=O)C3NC(=O)C4NC(=O)C(Cc5ccc(c(Cl)c5)Oc5cc3cc(c5OC(CCO)C(=O)O)Oc3ccc(cc3Cl)C2O)NC(=O)C(N)c2ccc(O)c(c2)Oc2cc(O)cc4c2)c2ccc(O)c(c2)-c2c(O)cc(O)cc21 (centres unmarked) [Compound 3, O⁵⁶ -(1-carboxy-3-hydroxypropyl)deglucoteicoplanin methyl ester hydrochloride] | 6
2 | COC(=O)C1NC(=O)C2NC(=O)C(NC(=O)C3NC(=O)C4NC(=O)C(Cc5ccc(c(Cl)c5)Oc5cc3cc(c5OCCN3CCCC3)Oc3ccc(cc3Cl)C2O)NC(=O)C(N)c2ccc(O)c(c2)Oc2cc(O)cc4c2)c2ccc(O)c(c2)-c2c(O)cc(O)cc21 (centres unmarked) [Compound 13, O⁵⁶-[2-(1-pyrrolidinyl)-ethyl]deglucoteicoplanin methyl ester dihydrochloride] | 6.4
